In paper PMC10703884, “Targeting the COMMD4–H2B protein complex in lung cancer” (British Journal of Cancer, 2023):
“Also recorded” adds a separate entry of the source. No end group written: not given here.

Tested on: NSCLC cells
Test: Mitotic catastrophe (emerin and phalloidin staining), NSCLC cells
Type: cell-based
Conditions: 100 cells counted
Procedure: For siRNA transfections, cells were transfected with negative control or COMMD4 siRNA #2 (CCAUGUCCCUCUCAGCAGA[dT][dT] MISSION® siRNA, Sigma-Aldrich) using RNAiMax (Life Technologies) as previously described and samples were analysed 48 to 72 h post-transfection. The H2B wild-type (FLAG-H2BWT) and mutant (FLAG-H2BMUT1) expression constructs were generated with the 10-amino acid peptide and the corresponding mutant cloned into the expression vector pCDNA3.1/(+)-N-DYK containing an N-terminal FLAG tag and a C-terminal nuclear localisation signal (AAKRVKLDS) (GenScript). […] Cells were mock-transfected, or transfected with FLAG-H2BWT/FLAG-H2BMUT1, or COMMD4-FLAG/A70K with FuGENE® HD (Promega) using the manufacturer’s protocol and analysed 24 h post-transfection.
NSCLC cells were grown in 96-well plates as above and stained with anti-emerin antibody and phalloidin. Mitotic catastrophe was scored as previous. A minimum of 100 cells for each experimental condition were assessed to determine the percentage of aberrant nuclei.
As previously determined, in this study, we used two markers to determine mitotic catastrophe: emerin staining of the nuclear envelope and phalloidin staining of the F-actin cytoskeleton. […] We subsequently measured apoptosis by staining for Annexin V and propidium iodide via flow cytometry in FLAG-H2B WT, FLAG-H2BMUT1 and mock-transfected control and NSCLC cells (Fig. 5c, d). […]

FLAG-H2BWT: 10-amino acid peptide cloned into expression vector containing an N-terminal FLAG tag and a C-terminal nuclear localisation signal ({FLAG}-SFVNDIFERIAAKRVKLDS)
aberrant nuclei / mitotic catastrophe: significantly more aberrant nuclei, indicative of mitotic catastrophe induction, relative to FLAG-H2BMUT1; also recorded: significantly more mitotic catastrophe than control cells
